One block for each compound: values may come before it. Where a SMILES comes first, the peptide text is derived from it.
Tests used:
[1] = Inositol in vitro skin penetration study (Franz Diffusion Cell assay); assay type: in vitro ADME, human; conditions: 0.5% inositol product, 24 hours; magnet with vibration vs. finger application or applicator incorporating a magnet; particularly in the epidermis; FIG. 6
Description: Skin penetration was measured using the Franz Diffusion Cell assay. Split-thickness (dermatomed) human cadaver skin was thawed under ambient conditions, cut into appropriately sized sections, and mounted in standard Franz-type diffusion cells (0.79 cm^2 surface area) maintained at about 37° C. The receptor compartments were filled with 5 mL phosphate buffered saline (PBS-pH 7.4) that included 1% polysorbate-20 and 0.02% sodium azide, and the skin was allowed to equilibrate for two hours. The cells were qualified upon ^3H20 flux through the mounted skin (150 μL of ^3H20 applied for five minutes and removed; receptor fluid was collected after one hour and analyzed using scintillation spectrometry). […] Where indicated, aliquots of the test products/formulations were spiked with the appropriate radioactive material (^3H-inositol, ^14C-niacinamide, ^14[…] or ^14C-retinyl propionate) with approximately 3 μCi per 300 mg product aliquot, mixed and assayed for total radioactivity in triplicate using Ultima Gold [Perkin-Elmer] liquid scintillation cocktail (LSC) and liquid scintillation counting. […] Active materials in receptor phase, filter paper wipes and solubilized skin samples were quantified using liquid scintillation. […]

[2] = Pal KTTKS in vivo skin penetration study (tape stripping); set-up: species or system human; key to significance of mean μg PalKTTKS/μg skin of Strip 6-10: “s” indicates significant difference vs. mean of passive (p < 0.1); conditions: for μg PalKTTKS/μg skin of Strip 6-10: cream; for Enhancement for strip 6-10: w Vibration vs. w/o Vibration
Description: An in vivo skin penetration study was conducted to establish the effect of using a skin care product of the present invention by applying a skin care composition comprising a peptide, in this case, Pal KTTKS, with an applicator comprising a magnetic array and a vibration source. The study used 10 active study sites (composition applied to target skin surface using an applicator containing a magnetic array and vibration source of the present invention) versus 10 control study sites (composition applied to target skin surface using an applicator with just a magnetic array). In this example, the level of Pal KTTKS present in the extract from each tape strip was measured using HPLC and the results normalized to the protein level measured on the tape strip.
This method provides a suitable means of measuring the amount of skin care active present in skin, and comparing active versus passive application of the skin care active. Two identical circular areas of 7.9 cm^2 were marked on the volar forearms of volunteers. A measured dose (approximately 9 mg) of the skin care formulation (ingredients shown in Table 1) was applied to the delineated areas using a screw actuated syringe. Application was carried out in each case using purpose made applicators having a metallic aluminium skin contact surface behind which was the magnetic array. The cream was spread evenly across the entire delineated region using the applicator in a sweeping motion with a fixed speed of approximately 3.5 cm/s to mimic normal finger application. The application period was 30 seconds during which time visual inspection was used to ensure even distribution and absorption of the formulation by skin. The application area was then left uncovered for a further 30 minutes to ensure complete absorption. The application area was then wiped thoroughly to remove any surface material, followed by carrying out tape stripping.
The Tape Stripping method can be carried out using commercial pre-cut 22.1 mm tape stripping adhesive discs (D-Squame, Cuderm Corporation or equivalent) with an adhesive area of 3.8 cm^2. A 22.1 mm diameter circular region was marked at the centre of the application area. A tape stripping adhesive disc was placed over the marked area and even pressure applied using a neoprene roller, rolled ten times over the surface. The adhesive disc was removed from the skin surface in a single pulling motion using manual tweezers. To ensure even removal of the stratum corneum, subsequent discs were removed in a north, south, east and west orientation. Each adhesive disc was non-destructively analysed for relative protein content using the SquameScan™ 850 instrument (Heiland Electronics Wetzlar Germany). The adhesive disc was then immediately placed into a glass vial containing extraction solvent in preparation for subsequent analysis. Solvent extractions are conducted on each tape strip using conventional extraction methods, which are well known to those of ordinary skill in the art, and measuring the amount of niacinamide present in the extract, for example, by high performance liquid chromatography (“HPLC”) and/or mass spectrometry.
The procedure was repeated for the remaining nine strips. An additional strip was obtained from outside the area of application of the skin care formulation to serve as a blank sample.

[3] = unit not given; cited from earlier work

SMILES: OC1C(O)[C@H](O)[C@@H](O)C(O)[C@H]1O (stereo in doubt) [inositol, cyclohexane-1,2,3,4,5,6-hexol]
penetration into skin of inositol [1]: significant increase in penetration into skin

significance of mean μg PalKTTKS/μg skin of Strip 6-10 ([2]; Magnetic Micro array w Vibration, Mean, vs. mean of passive): s
μg PalKTTKS/μg skin of Strip 6-10 ([2]; Magnetic Micro array w Vibration, Mean of 10 panelists): 0.02522 μg PalKTTKS/μg skin
μg PalKTTKS/μg skin of Strip 6-10 ([2]; Magnetic Micro array w Vibration, Panelist1): 0.01152 μg PalKTTKS/μg skin
μg PalKTTKS/μg skin of Strip 6-10 ([2]; Magnetic Micro array w Vibration, Panelist2): 0.02161 μg PalKTTKS/μg skin
μg PalKTTKS/μg skin of Strip 6-10 ([2]; Magnetic Micro array w Vibration, Panelist3): 0.01304 μg PalKTTKS/μg skin
μg PalKTTKS/μg skin of Strip 6-10 ([2]; Magnetic Micro array w Vibration, Panelist4): 0.0258 μg PalKTTKS/μg skin
μg PalKTTKS/μg skin of Strip 6-10 ([2]; Magnetic Micro array w Vibration, Panelist5): 0.0568 μg PalKTTKS/μg skin
μg PalKTTKS/μg skin of Strip 6-10 ([2]; Magnetic Micro array w Vibration, Panelist6): 0.04369 μg PalKTTKS/μg skin
μg PalKTTKS/μg skin of Strip 6-10 ([2]; Magnetic Micro array w Vibration, Panelist7): 0.02184 μg PalKTTKS/μg skin
μg PalKTTKS/μg skin of Strip 6-10 ([2]; Magnetic Micro array w Vibration, Panelist8): 0.02081 μg PalKTTKS/μg skin
μg PalKTTKS/μg skin of Strip 6-10 ([2]; Magnetic Micro array w Vibration, Panelist9): 0.01648 μg PalKTTKS/μg skin
μg PalKTTKS/μg skin of Strip 6-10 ([2]; Magnetic Micro array w Vibration, Panelist10): 0.02061 μg PalKTTKS/μg skin
μg PalKTTKS/μg skin of Strip 6-10 ([2]; Magnetic Micro array w/o Vibration, Mean of 10 panelists): 0.02166 μg PalKTTKS/μg skin
μg PalKTTKS/μg skin of Strip 6-10 ([2]; Magnetic Micro array w/o Vibration, Panelist1): 0.0107 μg PalKTTKS/μg skin
μg PalKTTKS/μg skin of Strip 6-10 ([2]; Magnetic Micro array w/o Vibration, Panelist2): 0.01869 μg PalKTTKS/μg skin
μg PalKTTKS/μg skin of Strip 6-10 ([2]; Magnetic Micro array w/o Vibration, Panelist3): 0.00663 μg PalKTTKS/μg skin
μg PalKTTKS/μg skin of Strip 6-10 ([2]; Magnetic Micro array w/o Vibration, Panelist4): 0.01973 μg PalKTTKS/μg skin
μg PalKTTKS/μg skin of Strip 6-10 ([2]; Magnetic Micro array w/o Vibration, Panelist5): 0.05444 μg PalKTTKS/μg skin
μg PalKTTKS/μg skin of Strip 6-10 ([2]; Magnetic Micro array w/o Vibration, Panelist6): 0.03195 μg PalKTTKS/μg skin
μg PalKTTKS/μg skin of Strip 6-10 ([2]; Magnetic Micro array w/o Vibration, Panelist7): 0.02902 μg PalKTTKS/μg skin
μg PalKTTKS/μg skin of Strip 6-10 ([2]; Magnetic Micro array w/o Vibration, Panelist8): 0.01924 μg PalKTTKS/μg skin
μg PalKTTKS/μg skin of Strip 6-10 ([2]; Magnetic Micro array w/o Vibration, Panelist9): 0.00638 μg PalKTTKS/μg skin
μg PalKTTKS/μg skin of Strip 6-10 ([2]; Magnetic Micro array w/o Vibration, Panelist10): 0.01984 μg PalKTTKS/μg skin
penetration of the active into skin ([2]; applicator combining magnetic array with vibration source vs. control applicator with just a magnetic array): penetration of the active is enhanced
Enhancement for strip 6-10 ([2]; Mean): 1.337
Enhancement for strip 6-10 ([2]; Panelist1): 1.077
Enhancement for strip 6-10 ([2]; Panelist2): 1.156
Enhancement for strip 6-10 ([2]; Panelist3): 1.966
Enhancement for strip 6-10 ([2]; Panelist4): 1.307
Enhancement for strip 6-10 ([2]; Panelist5): 1.043
Enhancement for strip 6-10 ([2]; Panelist6): 1.367
Enhancement for strip 6-10 ([2]; Panelist7): 0.7528
Enhancement for strip 6-10 ([2]; Panelist8): 1.081
Enhancement for strip 6-10 ([2]; Panelist9): 2.582
Enhancement for strip 6-10 ([2]; Panelist10): 1.039
SMILES: CCCCCCCCCCCCCCCC(=O)N[C@@H](CCCCN)C(=O)N[C@H](C(=O)N[C@H](C(=O)N[C@@H](CCCCN)C(=O)N[C@@H](CO)C(=O)O)[C@@H](C)O)[C@@H](C)O [PalKTTKS, palimitoyl-lysine-threonine-threonine-lysine-serine] (HELM PEPTIDE1{[CCCCCCCCCCCCCCCC(=O)[*:2]].K.T.T.K.S}$$$$V2.0; C-terminus assumed)
diamagnetic susceptibility [3]: approximately −519
